One series has as its system Phenion skin models. The series is described as follows: H&E staining of cryosections of Phenion skin models. The following applies: FIG. 5B; 0.5 mM peptide (control). Format: cell-based. As for the experimental part:
(§1) The investigations were carried out using Phenion FTS full skin models (Phenion, Henkel). These were maintained for 3 days at 37° C. and 7% CO2 in deep-well plates having a […] pore size in the cell culture inserts. The skin models were maintained in 1.5 ml of air-liquid interface medium without phenol red. The medium was changed daily. The test substances were dissolved in ethanol and incubated at room temperature for 24 h. After culturing for 24 h, 25 μl of the substance solution was dripped onto a sterile filter paper that had previously been laid on the skin model. The barrier peptide (0.5 mM AcRFAACAA) had previously been applied to the model as a solution in 100 mM phosphate buffer (pH 7.5). Alternatively, the barrier peptide was applied in a formulation having a content of 0.25% by weight.
(§2) After culturing for a further 24 h, the models were harvested and one half embedded in OCT mounting medium (VWR Q-Path Chemicals), the other half snap-frozen in liquid nitrogen. The supernatant of each model was collected and stored at −20° C.
In further investigations, frozen sections were thawed and incubated for 10 min in 3.7% paraformaldehyde at RT. After three PBS wash steps and one minute in distilled water, they are stained for 3 min in hematoxylin solution. […]

The next series has as its system interleukin 6 (IL6). The series is described as follows: Interleukin 6 in supernatants of Phenion FTS full skin models (Bio-Plex multiplex immunoassay). The conditions noted are these: FIG. 4, left bar; peptide alone. Type of series: cell-based, Human. As for the experimental part:
as §1, §2
The supernatants were then analyzed (FIGS. 2, 3 and 4).
The supernatants of the Phenion FTS models were analyzed using the Bio-Plex Pro Human Cytokine Screening Panel (Bio-Rad) according to the manufacturer's protocol. […] The cytokine concentrations are calculated on the basis of the standard curves from the Bioplex system. […]

Series [1] is described as follows: Direct peptide reactivity assay (DPRA) with urushiols, Ellman's reagent, 24 h. The conditions noted are these: FIG. 9; urushiols C15:1, C15:2, C15:3 (structures I-V); 24 h reaction, n=3. The procedure: FIGS. 7A-E, 8, and 9 show investigations into the reactivity of peptides of the invention with allergens over time (x-axis) and after 24 h. The absorbance is plotted on the y-axis. The peptide-allergen reactions were realized according to a direct peptide reactivity assay. The test is referred to as the in-chemico method, that is to say no cells are used, but a chemical reaction is carried out.
The native, still-unbound peptide is detected by reaction with Ellman's reagent and corresponding absorbance measurement. The direct peptide reactivity assay (DPRA) is a chemical method for predicting epidermal protein binding. DPRA uses for example HPLC to measure the depletion of peptides in solution after exposure to test chemicals.
In the DPRA method, the absorbance at 415 nm is determined as the measured variable.
The allergen concentration is in the investigations carried out a standard 5 mM and thus 10 times the concentration of the peptide used (0.5 mM).
The reaction courses shown in FIGS. 8 and 9 were determined colorimetrically through the reaction of the peptide with Ellmann's reagent in a photometer. In this reaction, DTNB ((5,5′-dithiobis-2-nitrobenzoic acid, Ellmann's reagent) is cleaved and attached to the SH residue of the amino acid cysteine of the peptides of the invention (Ac-RFAACAA, RFAACAA). […]

Where no end group is shown, it is not given here.

Turning to “Ac-RFAACAA [Ac-RFAACAA, acetylarginine-phenylalanine-alanine-alanine-cysteine-alanine-alanine]”, in the series on Phenion skin models, the “skin model histology (H&E), peptide alone” value is “unchanged”. Also, the “interleukin 6 (IL6) concentration, peptide on its own” value with interleukin 6 (IL6) is “unchanged”.

RFAACAA [Arg Phe Ala Ala Cys Ala Ala]: the “reactivity and thus protective activity against urushiols” value in series [1] is “very high reactivity”.

The values are drawn from patent publication US20230109157A1, “TOPICALLY APPLICABLE PREPARATION COMPRISING PEPTIDES AS ALLERGEN PROTECTION FOR THE SKIN” (BEIERSDORF AG, priority 2020, published 2023).
